{"source": "patent US8163795B2", "about": "“Chroman derivatives, medicaments and use in therapy” (Marshall Edwards, Inc., priority 2004, dated 2012)", "key": {"[1]": {"tested_on": "Neonatal foreskin fibroblasts (NFF)", "assay": "Proliferation assay (MTT), normal cell toxicity", "type": "cell-based, Human", "conditions": "Homo sapiens, Fibroblast, read-out: IC50"}, "4405 melanoma cell line": {"tested_on": "4405 melanoma cell line", "assay": "Proliferation assay (MTT)", "type": "cell-based", "conditions": "Table 15; melanoma 4405", "summary_of_the_method": "(§1)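 Seed cells at growth-kinetics-derived density; treat with compounds for 5 days at 37° C in humidified 5% CO2; add MTT for 3-4 hrs at 37° C; plot % of control proliferation against log dose to obtain IC50.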"}, "A2780 (Ovarian)": {"tested_on": "A2780 (Ovarian)", "assay": "Proliferation assay (MTT)", "type": "cell-based", "conditions": "Homo sapiens, Table 2.1", "summary_of_the_method": "as §1"}, "CCRF-CEM (Leukemic)": {"tested_on": "CCRF-CEM (Leukemic)", "assay": "Proliferation assay (MTT)", "type": "cell-based", "conditions": "Homo sapiens, CCRF-CEM", "summary_of_the_method": "as §1"}, "DU145 (Prostate)": {"tested_on": "DU145 (Prostate)", "assay": "Proliferation assay (MTT)", "type": "cell-based", "conditions": "Homo sapiens, DU-145, Table 2.1", "summary_of_the_method": "as §1"}, "HCT-15 (Colorectal)": {"tested_on": "HCT-15 (Colorectal)", "assay": "Proliferation assay (MTT)", "type": "cell-based", "conditions": "Homo sapiens; Table 2.1; Colorectal HCT-15", "summary_of_the_method": "as §1"}, "HT-29 (Colorectal)": {"tested_on": "HT-29 (Colorectal)", "assay": "Proliferation assay (MTT)", "type": "cell-based", "conditions": "Homo sapiens, Colorectal HT-29", "summary_of_the_method": "as §1"}, "HTB-138 (Glioma)": {"tested_on": "HTB-138 (Glioma)", "assay": "Proliferation assay (MTT)", "type": "cell-based", "conditions": "Table 2.1; Glioma HTB-138", "summary_of_the_method": "as §1"}, "IGR-3 (Melanoma)": {"tested_on": "IGR-3 (Melanoma)", "assay": "Proliferation assay (MTT)", "type": "cell-based", "summary_of_the_method": "as §1"}, "LNCaP (Prostate)": {"tested_on": "LNCaP (Prostate)", "assay": "Proliferation assay (MTT)", "type": "cell-based", "conditions": "Homo sapiens, Table 2.1", "summary_of_the_method": "as §1"}, "[2]": {"tested_on": "MCF-7 breast cancer cell line", "assay": "Proliferation assay (MTT)", "type": "cell-based", "conditions": "Homo sapiens, MCF7; Table 2.1; Breast MCF-7", "summary_of_the_method": "as §1"}, "MM96L melanoma cell line": {"tested_on": "MM96L melanoma cell line", "assay": "Proliferation assay (MTT)", "type": "cell-based", "conditions": "Homo sapiens, Table 15", "summary_of_the_method": "as §1"}, "NCI-H23 (Lung)": {"tested_on": "NCI-H23 (Lung)", "assay": "Proliferation assay (MTT)", "type": "cell-based", "conditions": "Homo sapiens, Table 2.1", "summary_of_the_method": "as §1"}, "NCI-H460 (Lung)": {"tested_on": "NCI-H460 (Lung)", "assay": "Proliferation assay (MTT)", "type": "cell-based", "conditions": "Homo sapiens", "summary_of_the_method": "as §1"}, "[3]": {"tested_on": "PC3 prostate cancer cell line", "assay": "Proliferation assay (MTT)", "type": "cell-based", "summary_of_the_method": "as §1"}, "RM melanoma cell line": {"tested_on": "RM melanoma cell line", "assay": "Proliferation assay (MTT)", "type": "cell-based", "conditions": "Table 15", "summary_of_the_method": "as §1"}, "[4]": {"tested_on": "SKMe128 melanoma cell line", "assay": "Proliferation assay (MTT)", "type": "cell-based", "conditions": "Table 15", "summary_of_the_method": "as §1"}, "A2058 melanoma cell line": {"tested_on": "A2058 melanoma cell line", "assay": "Proliferation assay (MTT)", "type": "cell-based", "conditions": "Homo sapiens"}, "[5]": {"tested_on": "HPAC pancreatic cancer tumours", "assay": "Pilot in vivo efficacy study, HPAC tumour bearing mice", "set-up": "species or system Athymic nu/nu BALB/c mice", "description": "Subconfluent (80%) flasks of HPAC cells were trypsinised, washed in Hanks balanced salt solution (Sigma), resuspended in dubellco's minimal essential medium (Sigma) and an equal volume of Matrigel™ (Becton Dickson) at a density of 3.7×10^7 cells per ml. Athymic nu/nu BALB/c mice were s.c. inoculated with 3.7×10^6 HPAC cells bi-laterally midway along the dorsal surface. For the HMC (n=3 per dosage regimen) and control groups (n=2), treatment commenced five days post inoculation to allow tumour formation. HMC was formulated 20% HPBCD and delivered i.p. daily for 15 days. The control group received equivalent (weight:weight) i.p. doses of 20% HPBCD. Tumour measurements commenced on day 5 post inoculation (10×10 mm^2) and were measured in 2 dimensions, length (a) and width (b), using calipers. Tumor weight (W) was calculated by the formula W=ab2/2, where a, is the longer of the 2 measurements (Odwyer et al., 1994). Tumour proliferation curves were analyzed with respect to maximal tumour inhibition (treated/control, TIC). On sacrifice, liver, kidney, femur, stomach and colon tissue were fixed in buffered formalin, embedded in paraffin, sections cut and stained with H&E. Stained sections were then submitted to Rothwell consulting for histopathology analysis. Serum biochemistry was conducted on bloods taken from control, vehicle control and HMC treatment groups. Serum analysis was conducted by Veterinary Clinical pathology (U. Syd).\nHistopathological examination of haematoxylin and eosin-stained sections cut from formalin-fixed tissues from two series of experimental mice was made. The liver, kidney, stomach and colon were examined for evidence of toxic damage, the spleen and bone marrow for evidence of myelosuppression and the tumour for degree of necrosis. A score of 0-5 was allocated to each tumour specimen for the degree of necrosis present, a 0 score representing, no necrosis and a score of 5, total necrosis. The sections were scored ‘blind’ on two separate occasions and the final score given in the results is the mean of these two scores."}}, "note": "Where two headings read alike, the source gives them in different places.", "data": [{"smiles": "COc1ccc(C2c3ccc(O)cc3OCC2c2ccc(O)cc2)cc1", "note": "(stereo not shown) [Compound 1, 3-(4-hydroxyphenyl)-4-(4-methoxyphenyl)chroman-7-ol]", "values": [{"measurement": "IC50", "setting": "[1]; Table 1, Neonatal Foreskin Fibroblasts (Human, NFF)", "value": "86100 ± 7600", "unit": "nM"}, {"measurement": "IC50", "setting": "[1]; NFF", "value": 86000, "unit": "nM"}, {"measurement": "IC50", "setting": "4405 melanoma cell line", "value": "1460 ± 180", "unit": "nM"}, {"measurement": "IC50", "setting": "A2780 (Ovarian)", "value": "1580 ± 590", "unit": "nM"}, {"measurement": "IC50", "setting": "CCRF-CEM (Leukemic); Table 2.1, Leukemic CCRF-CEM", "value": 1900, "unit": "nM"}, {"measurement": "IC50", "setting": "CCRF-CEM (Leukemic); Table 2.2, Leukaemia CCRF-CEM", "value": "2000 ± 970", "unit": "nM"}, {"measurement": "IC50", "setting": "DU145 (Prostate)", "value": 3780, "unit": "nM"}, {"measurement": "IC50", "setting": "HCT-15 (Colorectal)", "value": "37800 ± 33000", "unit": "nM"}, {"measurement": "IC50", "setting": "HT-29 (Colorectal); HT-29, Table 2.1", "value": "3700 ± 1400", "unit": "nM"}, {"measurement": "IC50", "setting": "HT-29 (Colorectal); HT-29, Table 2.2", "value": "5400 ± 1800", "unit": "nM"}, {"measurement": "IC50", "setting": "HTB-138 (Glioma)", "value": "1900 ± 270", "unit": "nM"}, {"measurement": "IC50", "setting": "IGR-3 (Melanoma); Table 2.1, Melanoma IGR-3", "value": "530 ± 20", "unit": "nM"}, {"measurement": "IC50", "setting": "IGR-3 (Melanoma); Table 15, melanoma IgR3", "value": "510 ± 80", "unit": "nM"}, {"measurement": "IC50", "setting": "LNCaP (Prostate)", "value": 4520, "unit": "nM"}, {"measurement": "IC50", "setting": "[2]", "value": "7150 ± 7000", "unit": "nM"}, {"measurement": "IC50", "setting": "MM96L melanoma cell line", "value": "1310 ± 380", "unit": "nM"}, {"measurement": "IC50", "setting": "NCI-H23 (Lung)", "value": "3750 ± 2500", "unit": "nM"}, {"measurement": "IC50", "setting": "NCI-H460 (Lung); NCI-H460, Table 2.1, Lung NCI-H460", "value": "2230 ± 150", "unit": "nM"}, {"measurement": "IC50", "setting": "NCI-H460 (Lung); NCI-H460, Table 2.2, NSC Lung NCI-H460", "value": "2800 ± 2000", "unit": "nM"}, {"measurement": "IC50", "setting": "[3]; Table 2.1", "value": "2900 ± 920", "unit": "nM"}, {"measurement": "IC50", "setting": "[3]; Table 2.2", "value": "2500 ± 1000", "unit": "nM"}, {"measurement": "IC50", "setting": "RM melanoma cell line", "value": "1400 ± 1600", "unit": "nM"}, {"measurement": "IC50", "setting": "[4]", "value": "680 ± 160", "unit": "nM"}, {"measurement": "IC50", "setting": "A2058 melanoma cell line; A2058, Table 2.1, Melanoma A2058", "value": "1200 ± 650", "unit": "nM"}, {"measurement": "IC50", "setting": "A2058 melanoma cell line; A2058, Table 15, melanoma A2058", "value": "1420 ± 480", "unit": "nM"}, {"measurement": "final tumour burden (mean terminal tumour mass), % T/C", "setting": "[5]; 100 mg/kg i.p. daily, 15 days", "value": 62, "unit": "%"}, {"measurement": "proliferation of HPAC tumours over the treatment period vs vehicle control", "setting": "[5]; 100 mg/kg i.p. daily, 15 days, in 20% HPBCD", "value": "significantly retarded the proliferation of HPAC tumours"}, {"measurement": "Necrosis Score 0-5 (tumour)", "setting": "[5]; individual treated mice, 0 no necrosis, 5 total necrosis, mean of two blind scores", "value": 2}]}]}
